Where a name gives a salt, the structure may show the parent alone. Read-outs that look alike come from different tables or passages of the source.
How the values were obtained:
[1] = target: purified human Factor XIa (Homo sapiens (Human), UniProt P03951); assay: biochemical; assay type: biochemical
[2] = target: purified human plasma kallikrein (Homo sapiens (Human), UniProt P03952); assay: biochemical; assay type: biochemical
Sequence of purified human plasma kallikrein (P03952 whole entry, looked up): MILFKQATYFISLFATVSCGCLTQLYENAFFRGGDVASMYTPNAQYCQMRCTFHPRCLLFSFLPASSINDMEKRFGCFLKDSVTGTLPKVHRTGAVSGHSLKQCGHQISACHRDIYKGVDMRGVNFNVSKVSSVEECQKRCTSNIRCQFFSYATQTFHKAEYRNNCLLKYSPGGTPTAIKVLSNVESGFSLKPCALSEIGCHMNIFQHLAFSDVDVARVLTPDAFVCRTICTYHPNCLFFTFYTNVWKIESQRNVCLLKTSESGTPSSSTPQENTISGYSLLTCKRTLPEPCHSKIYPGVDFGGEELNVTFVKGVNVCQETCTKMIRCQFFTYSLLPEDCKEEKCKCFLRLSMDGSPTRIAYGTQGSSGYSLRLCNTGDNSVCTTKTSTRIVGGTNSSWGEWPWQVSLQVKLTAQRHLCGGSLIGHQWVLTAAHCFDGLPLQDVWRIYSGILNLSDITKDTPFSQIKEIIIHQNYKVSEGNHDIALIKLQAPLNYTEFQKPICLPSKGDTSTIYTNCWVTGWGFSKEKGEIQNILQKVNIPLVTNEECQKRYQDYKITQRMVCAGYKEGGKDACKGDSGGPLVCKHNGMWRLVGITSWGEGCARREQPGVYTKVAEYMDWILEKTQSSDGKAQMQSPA
Sequence of purified human plasma kallikrein (P03952 whole entry partner, looked up): as the sequence (P03952 whole entry, looked up) above

Sequence of purified human Factor XIa (P03951 whole entry, looked up): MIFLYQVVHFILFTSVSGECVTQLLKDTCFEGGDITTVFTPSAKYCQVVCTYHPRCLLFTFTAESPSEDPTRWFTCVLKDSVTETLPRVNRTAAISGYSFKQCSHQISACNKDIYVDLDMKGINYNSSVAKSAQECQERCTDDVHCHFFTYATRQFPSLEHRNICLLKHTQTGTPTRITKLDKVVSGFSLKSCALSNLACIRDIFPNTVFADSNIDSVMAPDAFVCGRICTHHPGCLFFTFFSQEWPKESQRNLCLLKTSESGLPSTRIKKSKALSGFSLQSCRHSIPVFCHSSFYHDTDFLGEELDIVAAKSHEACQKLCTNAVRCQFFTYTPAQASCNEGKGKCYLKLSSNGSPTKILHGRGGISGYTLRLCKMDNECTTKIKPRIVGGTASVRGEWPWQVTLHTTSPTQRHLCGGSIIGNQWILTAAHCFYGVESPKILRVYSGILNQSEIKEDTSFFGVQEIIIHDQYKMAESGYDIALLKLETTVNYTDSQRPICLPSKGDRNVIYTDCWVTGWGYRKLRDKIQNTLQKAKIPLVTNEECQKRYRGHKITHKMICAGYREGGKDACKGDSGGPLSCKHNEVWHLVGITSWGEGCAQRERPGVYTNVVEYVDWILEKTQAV
Sequence of purified human Factor XIa (P03951 whole entry partner, looked up): as the sequence (P03951 whole entry, looked up) above

| Structure (SMILES) | Ki [1] | Ki ([2]; Plasma Kallikrein Ki) | Ki ([1]; read-out: Factor XIa Ki) | Ki ([2]; read-out: Plasma Kallikrein Ki) |
| --- | --- | --- | --- | --- |
| COC(=O)Nc1ccc2c(c1)NC(=O)[C@H](C)CCC[C@H](N1CC(C)C(c3c(F)ccc(Cl)c3F)=CC1=O)c1cc-2ccn1 (single isomer, unassigned; isomer 1) [Example 177] | 0.8 nM | 4.02 nM |  |  |
| C[C@@H]1CCC[C@H](N2CCC(c3c(F)ccc(Cl)c3F)=CC2=O)c2cccc(c2)-c2ccccc2NC1=O [Example 162, (10R,14S)-14-[4-(3-chloro-2,6-difluorophenyl)-6-oxo-1,2,3,6-tetrahydropyridin-1-yl]-10-methyl-8-azatricyclo[13.3.1.0^2,7]nonadeca-1(19),2,4,6,15,17-hexaen-9-one] |  |  | 76.5 nM | 125 nM |
| COC(=O)c1ccc2c(c1)-c1cccc(c1)[C@@H](N1CCC(c3cccc(Cl)c3F)=CC1=O)CCC[C@@H](C)C(=O)N2 [Example 169, Methyl (10R,14S)-14-[4-(3-chloro-2-fluorophenyl)-6-oxo-1,2,3,6-tetrahydropyridin-1-yl]-10-methyl-9-oxo-8-azatricyclo[13.3.1.0^2,7]nonadeca-1(18),2,4,6,15(19),16-hexaene-4-carboxylate] |  |  | > 417 nM | 768 nM |
| COC(=O)c1ccc2c(c1)-c1cccc(c1)[C@H](N1CCC(c3c(Br)ccc(Cl)c3F)=CC1=O)CCC[C@@H](C)C(=O)N2 [Example 175, Methyl (10R,14R)-14-[4-(6-bromo-3-chloro-2-fluorophenyl)-6-oxo-1,2,3,6-tetrahydropyridin-1-yl]-10-methyl-9-oxo-8-azatricyclo[13.3.1.0^2,7]nonadeca-1(19),2,4,6,15,17-hexaene-4-carboxylate] |  |  | > 625 nM | 3810 nM |
| Cc1cc2cc3c(cc2[nH]1)NC(=O)[C@H](C)CCC[C@H](N1CCC(c2c(F)ccc(Cl)c2F)=CC1=O)c1cc-3ccn1 [Example 85, (13R,17S)-17-[4-(3-Chloro-2,6-difluorophenyl)-6-oxo-1,2,3,6-tetrahydropyridin-1-yl]-6,13-dimethyl-7,11,19-triazatetracyclo[16.3.1.0^2,10.0^4,8]docosa-1(22),2,4(8),5,9,18,20-heptaen-12-one, TFA salt] |  |  | 9.17 nM | 47 nM |
| C[C@@H]1CCC[C@H](N2CCC(c3cc(Cl)ccc3-n3ccnn3)=CC2=O)c2cc(ccn2)-c2cc(F)ccc2NC1=O [Example 188, (10R,14S)-14-{4-[5-chloro-2-(1H-1,2,3-triazol-1-yl)phenyl]-6-oxo-1,2,3,6-tetrahydropyridin-1-yl}-4-fluoro-10-methyl-8,16-diazatricyclo[13.3.1.0^2,7]nonadeca-1(19),2(7),3,5,15,17-hexaen-9-one] |  |  | 1.6 nM | 23.2 nM |
| C[C@@H]1CCC[C@H](N2CCC(c3c(C#N)ccc(Cl)c3F)=CC2=O)c2cc(ccn2)-c2c(ccc(F)c2F)NC1=O [Example 208, 4-chloro-2-{1-[(10R,14S)-3,4-difluoro-10-methyl-9-oxo-8,16-diazatricyclo[13.3.1.0^2,7]nonadeca-1(19),2(7),3,5,15,17-hexaen-14-yl]-6-oxo-1,2,3,6-tetrahydropyridin-4-yl}-3-fluorobenzonitrile, TFA salt] |  |  | 1 nM | 3.1 nM |
| C[C@@H]1CCC[C@H](N2CCC(c3c(F)ccc(Cl)c3F)=CC2=O)c2cc(ccn2)-c2ccc(Nc3ccccn3)cc2NC1=O [Example 88, (10R,14S)-14-[4-(3-Chloro-2,6-difluorophenyl)-6-oxo-1,2,3,6-tetrahydropyridin-1-yl]-10-methyl-5-[(pyridin-2-yl)amino]-8,16-diazatricyclo[13.3.1.0^2,7]nonadeca-1(19),2(7),3,5,15,17-hexaen-9-one, 2TFA salt] |  |  | 1.04 nM | 5 nM |
| COC(=O)c1ccc2c(c1)-c1ccnc(c1)[C@@H](N1CCC(c3c(F)ccc(Cl)c3F)=CC1=O)CCC[C@@H](C)C(=O)N2 [Example 144, Methyl (10R,14S)-14-[4-(3-chloro-2,6-difluorophenyl)-6-oxo-1,2,3,6-tetrahydropyridin-1-yl]-10-methyl-9-oxo-8,16-diazatricyclo[13.3.1.0^2,7]nonadeca-1(19),2(7),3,5,15,17-hexaene-4-carboxylate] |  |  | 186 nM | 108 nM |
| COC(=O)Nc1ccc2c(c1)NC(=O)[C@H](C)CCC[C@H](N1CCC(c3c(C(F)(F)F)ccc(Cl)c3F)=CC1=O)c1cc-2ccn1 [Example 25, Methyl N-[(10R,14S)-14-{4-[3-chloro-2-fluoro-6-(trifluoromethyl)phenyl]-6-oxo-1,2,3,6-tetrahydropyridin-1-yl}-10-methyl-9-oxo-8,16-diazatricyclo[13.3.1.0^2,7]nonadeca-1(19),2,4,6,15,17-hexaen-5-yl]carbamate, TFA salt] |  |  | 0.1 nM | 12 nM |
| CC(=O)Nc1ccc(Cl)c(F)c1C1=CC(=O)N([C@H]2CCC[C@@H](C)C(=O)Nc3ccccc3-c3ccnc2c3)CC1 [Example 183, N-(4-chloro-3-fluoro-2-{1-[(10R,14S)-10-methyl-9-oxo-8,16-diazatricyclo[13.3.1.0^2,7]nonadeca-1(19),2(7),3,5,15,17-hexaen-14-yl]-6-oxo-1,2,3,6-tetrahydropyridin-4-yl}phenyl)acetamide] |  |  | 75.1 nM | 297 nM |
| COC(=O)c1cccc2c1-c1ccnc(c1)[C@@H](N1CCC(c3c(F)ccc(Cl)c3F)=CC1=O)CCC[C@@H](C)C(=O)N2 [Example 213, Methyl (10R,14S)-14-[4-(3-chloro-2,6-difluorophenyl)-6-oxo-1,2,3,6-tetrahydropyridin-1-yl]-10-methyl-9-oxo-8,16-diazatricyclo[13.3.1.0^2,7]nonadeca-1(19),2(7),3,5,15,17-hexaene-3-carboxylate, TFA salt] |  |  | > 413 nM | 3370 nM |
| COCc1nnc(Nc2ccc3c(c2)NC(=O)[C@H](C)CCC[C@H](N2CCC(c4c(F)ccc(Cl)c4F)=CC2=O)c2cc-3ccn2)o1 [Example 41, (10R,14S)-14-[4-(3-Chloro-2,6-difluorophenyl)-6-oxo-1,2,3,6-tetrahydropyridin-1-yl]-5-{[5-(methoxymethyl)-1,3,4-oxadiazol-2-yl]amino}-10-methyl-8,16-diazatricyclo[13.3.1.0^2,7]nonadeca-1(19),2,4,6,15,17-hexaen-9-one, TFA salt] |  |  | 0.69 nM | 2 nM |
| C[C@@H]1CCC[C@H](n2ccc(-c3c(F)ccc(Cl)c3F)cc2=O)c2cc(ccn2)-c2c(F)cccc2NC1=O [Example 200, (10R,14S)-14-[4-(3-chloro-2,6-difluorophenyl)-2-oxo-1,2-dihydropyridin-1-yl]-3-fluoro-10-methyl-8,16-diazatricyclo[13.3.1.0^2,7]nonadeca-1(19),2(7),3,5,15,17-hexaen-9-one, TFA salt] |  |  | 18.1 nM | 28.7 nM |
| C[C@@H]1CCC[C@H](n2ccc(-c3cccc(Cl)c3F)cc2=O)c2cc(ccn2)-c2ccccc2NC1=O [Example 65, (10R,14S)-14-[4-(3-Chloro-2-fluorophenyl)-2-oxo-1,2-dihydropyridin-1-yl]-10-methyl-8,16-diazatricyclo[13.3.1.0^2,7]nonadeca-1(19),2,4,6,15,17-hexaen-9-one, TFA salt] |  |  | 47.6 nM | 53 nM |
| COC(=O)Nc1ccc2c(c1)NC(=O)[C@H](C)CCC[C@H](N1CCC(c3c(-c4c[nH]nn4)ccc(Cl)c3F)=CC1=O)c1cc-2ccn1 [Example 182, Methyl N-[(10R,14S)-14-{4-[3-chloro-2-fluoro-6-(1H-1,2,3-triazol-4-yl)phenyl]-6-oxo-1,2,3,6-tetrahydropyridin-1-yl}-10-methyl-9-oxo-8,16-diazatricyclo[13.3.1.0^2,7]nonadeca-1(19),2(7),3,5,15,17-hexaen-5-yl]carbamate] |  |  | 0.11 nM | 14.3 nM |
| COC(=O)Nc1ccc2c(c1)NC(=O)[C@H](C)CCC[C@H](N1CCC(c3cc(Cl)ccc3C(F)(F)F)=CC1=O)c1cc-2ccn1 [Example 36, Methyl N-[(10R,14S)-14-{4-[5-chloro-2-(trifluoromethyl)phenyl]-6-oxo-1,2,3,6-tetrahydropyridin-1-yl}-10-methyl-9-oxo-8,16-diazatricyclo[13.3.1.0^2,7]nonadeca-1(19),2,4,6,15,17-hexaen-5-yl]carbamate, TFA salt] |  |  | 0.09 nM | 8 nM |
| COC(=O)c1ccc2c(c1)-c1cccc(c1)[C@@H](N1CCC(c3c(C#N)ccc(C#N)c3F)=CC1=O)CCC[C@@H](C)C(=O)N2 [Example 168, Methyl (10R,14S)-14-[4-(3,6-dicyano-2-fluorophenyl)-6-oxo-1,2,3,6-tetrahydropyridin-1-yl]-10-methyl-9-oxo-8-azatricyclo[13.3.1.0^2,7]nonadeca-1(18),2,4,6,15(19),16-hexaene-4-carboxylate] |  |  | > 417 nM | 1920 nM |
| C[C@@H]1CCC[C@H](N2CCC(c3c(C#N)ccc(Cl)c3F)=CC2=O)c2cc(ccn2)-c2c(F)cc(F)cc2NC1=O [Example 207, 4-chloro-2-{1-[(10R,14S)-3,5-difluoro-10-methyl-9-oxo-8,16-diazatricyclo[13.3.1.0^2,7]nonadeca-1(19),2(7),3,5,15,17-hexaen-14-yl]-6-oxo-1,2,3,6-tetrahydropyridin-4-yl}-3-fluorobenzonitrile, TFA salt] |  |  | 2.75 nM | 5.8 nM |
| C[C@@H]1CCC[C@H](N2CCC(c3c(C#N)ccc(C#N)c3F)=CC2=O)c2cc(ccn2)-c2ccccc2NC1=O [Example 46, (10R,14S)-14-[4-(3,6-Dicyano-2-fluorophenyl)-6-oxo-1,2,3,6-tetrahydropyridin-1-yl]-10-methyl-8,16-diazatricyclo[13.3.1.0^2,7]nonadeca-1(19),2,4,6,15,17-hexaen-9-one, TFA salt] |  |  | 325 nM | 669 nM |
| COC(=O)Nc1ccc2c(c1)NC(=O)[C@H](C)C(F)CC[C@H](N1CCC(c3c(F)ccc(Cl)c3F)=CC1=O)c1cc-2ccn1 (stereo partly drawn) [Example 180, Methyl N-[(10S,14S)-14-[4-(3-chloro-2,6-difluorophenyl)-6-oxo-1,2,3,6-tetrahydropyridin-1-yl]-11-fluoro-10-methyl-9-oxo-8,16-diazatricyclo[13.3.1.0^2,7]nonadeca-1(19),2(7),3,5,15,17-hexaen-5-yl]carbamate] |  |  | 0.18 nM | 2.42 nM |

Source: patent publication US9409908B2 (priority 2012, dated 2016)
